Kd and stoichiometry N data for two molecules are collected here from paper PMC11442134, “The phytopathogen Xanthomonas campestris senses and effluxes salicylic acid via a sensor HepR and an RND family efflux pump to promote virulence in host plants” (mLife, 2024).

One test addresses T1, HepR (Xanthomonas campestris, UniProt Q8P3A9).
T1 construct: gene slyA; 147-amino acid protein, His-tagged HepR (pET28a), dimer
As to the kind of experiment: ITC with purified His-HepR (Kd […]); confirmed by SPR (Kd […]); SA inhibits HepR–Phep binding in EMSA. (In general: Mobility shift assays separate free from complexed probe on a gel.)

The target of test [1] is HepR (MarR family transcription factor, Xcc4167) (Xanthomonas campestris pv. campestris (strain XC1)). As to the kind of experiment: SEC; FPLC gel filtration of Ni-NTA purified His-tagged HepR on Superdex 75; 25 mM HEPES, 150 mM NaCl, pH 7.4.

What is called Kd is the constant that tells how readily two partners part at equilibrium. The molecule `O=C(O)c1ccccc1O` [SA, Salicylic acid] had a Kd on HepR of 19.3 µM.

As usually defined, the stoichiometry N is the number of molecules, sites or subunits per partner or assembly. In test [1], “HepR (MarR family transcription factor, Xcc4167) (natural protein)” yielded a stoichiometry N of 2.
